Data set [1] in a line: Steady-state plasma concentrations of ketoconazole in sheep (hplc). In kind it is in vivo. The procedure: Following the first dose on the first study day, venous blood samples (5 ml, anticoagulated with EDTA) were collected at 0.17, 0.33, 0.5, 0.75, 1, 2, 3, 4, 6, 8, 12, 15, 22, 27 and 32 h. […] Ketoconazole administration was continued throughout the latter blood sampling period.
Some blood samples taken on days 18-23 were centrifuged to yield plasma which was frozen at −20° C. until analysed for ketoconazole by a specific hplc method. Aliquots of plasma (0.1 ml) were vortexed vigorously with 1 ml acetonitrile (containing 8 mg of fluoxetine hydrochloride as internal standard) for 15 sec. The mixture was centrifuged at 1200 g for 10 min to sediment proteins, 0.5 ml of the supernatant was aspirated, transferred to a clean tube and evaporated to dryness at 50° C. using dry N2. The extract was reconstituted in 0.2 ml of hplc mobile phase and 0.02 ml aliquots were injected onto the hplc column. The hplc system consisted of a Merck RP Select B C18 column (25 cm×4.6 mm id), a mobile phase of 55% acetonitrile in 0.01% v/v H3PO4 and 0.01% W/V NaCl. The solvent was pumped at a flow rate of 1.5 ml/min and eluting compounds were detected by their UV absorbence at 210 nm.

In another data set the test system is B16M. The conditions noted are these: day 3 in culture, MTT.
For another data set, the system named is HT-29. The conditions noted are these: HT-29, day 3 in culture, MTT.
The next data set concerns SKMEL. The conditions noted are these: day 3 in culture, MTT.
For data set [2] the following is noted: literature (Borel, 1989; Reynolds et al, 1992; Eichenberger et al, 1989a); cited from earlier work.

The structures appear in SMILES notation. Values after ≈ are worked out from the molar mass of the structure shown.

Procedure for B16M: (§1) All tumour cell lines were incubated at 37° C./5%CO2/95% humidity and the medium was changed every 3 to 4 days. For passage and assay, cells were detached with 0.1% w/v trypsin/0.02% w/v versene (CSL).
(§2) The assay was performed according to the method of Mosmann (1983). […] 20 μl of MTT (stock at 5 mg/ml in PBS) was added to each well and the plates incubated at 37° C. for 4 hours. 100 ul of 0.04N HCl-isopropanol was then added to each well and the dark blue formazan-crystals were dissolved by mixing. Optical densities (ODs) were determined at 590 nm using a Titertek multiscan photometer (Flow Labs.) and were directly proportional to cell growth (Mosmann, 1983).
(§3) Tumour cell growth inhibition was assessed using the MTT assay.
(§4) If the values fall in a straight line the effects are additive, and if the points form a concave curve, the effects are synergistic. […] The fractional survival of the individual reagents is determined and the two values are multiplied together. The product of the two values becomes the expected cell survival, and is compared with the observed fractional survival when the two reagents are tested together. […]
Procedure for HT-29: as §1, §2, §3, §4
Procedure for SKMEL: as §1, §2, §3, §4

On to `CC(=O)N1CCN(c2ccc(OCC3COC(Cn4ccnc4)(c4ccc(Cl)cc4Cl)O3)cc2)CC1` (centres unmarked) [Ketoconazole], for which the “Steady-state concentration of ketoconazole in plasma (mean of trough samples)” value was found to be 2.6 mg/L in data set [1] (sheep 14, days 18-23, ketoconazole 10 mg/kg po twice daily); 2.19 mg/L in data set [1] (sheep 15, days 18-23, ketoconazole 10 mg/kg po twice daily); 1.63 mg/L in data set [1] (sheep 16, days 18-23, ketoconazole 10 mg/kg po twice daily); 3.04 mg/L in data set [1] (sheep 17, days 18-23, ketoconazole 10 mg/kg po twice daily). Besides, the “ED50 (± SD)” value in the data set on B16M came to 18.2 ± 3.9 µg/mL (≈ 34.2 µM); with HT-29, 12.7 ± 2.0 µg/mL (≈ 23.9 µM); with SKMEL, 28.3 ± 1.7 µg/mL (≈ 53.3 µM). The “Maximum therapeutic plasma concentration” value in data set [2] is 0.10 µg/mL.

The values above are taken from patent US6706947B2, “Method for screening for agents against cancer using an immunosuppression animal model” (Fremantle Hospital, priority 1996, dated 2004).
